Patent US10081624B2, “Heterocyclic compound” (Takeda Pharmaceutical Company Limited, priority 2014, dated 2018)

Molecular target: T1, HDAC6 enzyme (Homo sapiens, UniProt Q9UBN7)
T1 construct: prepared by transducing full length HDAC1 and HDAC6 genes into Sf-9 insect cells; GST; purchased SignalChem; host or cells: Sf-9 insect cells
T1 sequence (Q9UBN7 1-1215): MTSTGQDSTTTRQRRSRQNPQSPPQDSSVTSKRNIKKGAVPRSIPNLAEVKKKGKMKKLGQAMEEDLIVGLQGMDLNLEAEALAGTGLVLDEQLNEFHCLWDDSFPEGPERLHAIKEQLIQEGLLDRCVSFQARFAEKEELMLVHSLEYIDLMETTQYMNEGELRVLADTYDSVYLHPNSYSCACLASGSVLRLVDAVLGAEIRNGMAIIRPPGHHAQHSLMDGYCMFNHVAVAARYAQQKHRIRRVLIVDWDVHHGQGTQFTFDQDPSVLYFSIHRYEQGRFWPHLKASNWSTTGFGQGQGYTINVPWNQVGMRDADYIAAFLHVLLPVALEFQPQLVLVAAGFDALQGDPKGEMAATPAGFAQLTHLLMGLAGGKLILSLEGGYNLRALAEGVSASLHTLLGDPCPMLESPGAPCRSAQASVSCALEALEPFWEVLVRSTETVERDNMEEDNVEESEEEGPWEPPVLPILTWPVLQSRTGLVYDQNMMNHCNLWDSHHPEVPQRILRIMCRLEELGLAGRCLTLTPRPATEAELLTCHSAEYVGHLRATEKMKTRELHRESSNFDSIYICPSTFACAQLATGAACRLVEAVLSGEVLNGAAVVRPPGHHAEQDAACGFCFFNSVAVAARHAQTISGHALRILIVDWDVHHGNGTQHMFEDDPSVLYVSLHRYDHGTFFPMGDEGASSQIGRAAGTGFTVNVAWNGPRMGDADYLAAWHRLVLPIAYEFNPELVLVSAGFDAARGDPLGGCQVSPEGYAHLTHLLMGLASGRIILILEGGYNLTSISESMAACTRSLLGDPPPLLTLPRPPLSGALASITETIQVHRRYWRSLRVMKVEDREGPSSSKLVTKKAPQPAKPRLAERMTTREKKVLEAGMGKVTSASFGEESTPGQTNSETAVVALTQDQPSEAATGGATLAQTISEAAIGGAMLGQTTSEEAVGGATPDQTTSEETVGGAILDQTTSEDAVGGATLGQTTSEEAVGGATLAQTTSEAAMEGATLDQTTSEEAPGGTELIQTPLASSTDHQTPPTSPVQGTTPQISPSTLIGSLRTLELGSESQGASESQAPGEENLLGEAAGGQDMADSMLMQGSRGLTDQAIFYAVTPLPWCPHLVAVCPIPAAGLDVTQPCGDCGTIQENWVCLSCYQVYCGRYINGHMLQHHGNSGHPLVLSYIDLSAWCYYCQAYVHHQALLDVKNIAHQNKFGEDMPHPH
Assay: HDAC6 enzyme inhibitory assay (HDAC-Glo I/II Assay kit)
Type: biochemical
Conditions: 1 μM test compound; read-out: HDAC6 inhibitory rate (%) (1 μM)
Method: HDAC1 enzyme and HDAC6 enzyme each prepared by transducing full length HDAC1 and HDAC6 genes into Sf-9 insect cells and purifying by GST affinity column were purchased from SignalChem. Using these enzymes, HDAC1 and/or HDAC6 enzyme inhibitory activities of the compound of the present invention were evaluated. Enzymes were used after preserved at −70° C. HDAC1 or HDAC6 enzyme inhibitory activity of the compound of the present invention was measured using HDAC-Glo™ I/II Assay kit (Promega) according to the following experimental method. The test compound diluted with assay buffer (24 mM Tris-HCl (pH 7.5), 1 mM MgCl2, 0.35 mM KCl, 135 mM NaCl, 0.6 mM Glutathione, 0.01% Tween-20) was added to a 384-well plate by each 2 μL. Then, HDAC1 or HDAC6 enzyme solution diluted with assay buffer was added thereto by each 4 μL, and the plate was incubated at room temperature for 60 min. After incubated, HDAC substrate-Developer solution prepared according to Promega protocol attached to the assay kit was added to the 384-well plate by each 2 μL, and the enzyme reaction was started. After reacting at room temperature for 20 min, luminescence level was measured using plate reader Envision (PerkinElmer). The inhibitory activity of each compound was calculated as a relative activity value when luminescence level in wells without enzyme is considered as 100% inhibition.

inhibition at 1 µM [%] | SMILES
92 | COc1cccc(C(=O)N2CCOCC2CNC(=O)c2ccc(-c3noc(C(F)(F)F)n3)cc2)c1 (stereo in doubt) [Example 114, N-(((3R)-4-(3-methoxybenzoyl)morpholin-3-yl)methyl)-4-(5-(trifluoromethyl)-1,2,4-oxadiazol-3-yl)benzamide]
94 | N#Cc1ccccc1C(=O)N1CCOCC1CNC(=O)c1ccc(-c2noc(C(F)(F)F)n2)cc1 (stereo in doubt) [Example 115, N-(((3R)-4-(2-cyanobenzoyl)morpholin-3-yl)methyl)-4-(5-(trifluoromethyl)-1,2,4-oxadiazol-3-yl)benzamide]
91 | N#Cc1cccc(C(=O)N2CCOCC2CNC(=O)c2ccc(-c3noc(C(F)(F)F)n3)cc2)c1 (stereo in doubt) [Example 116, N-(((3R)-4-(3-cyanobenzoyl)morpholin-3-yl)methyl)-4-(5-(trifluoromethyl)-1,2,4-oxadiazol-3-yl)benzamide]
93 | N#Cc1ccc(C(=O)N2CCOCC2CNC(=O)c2ccc(-c3noc(C(F)(F)F)n3)cc2)cc1 (stereo in doubt) [Example 117, N-(((3R)-4-(4-cyanobenzoyl)morpholin-3-yl)methyl)-4-(5-(trifluoromethyl)-1,2,4-oxadiazol-3-yl)benzamide]
96 | O=C(NCC1COCCN1C(=O)c1ccncc1)c1ccc(-c2noc(C(F)(F)F)n2)cc1 (stereo in doubt) [Example 120, N-(((3R)-4-isonicotinoylmorpholin-3-yl)methyl)-4-(5-(trifluoromethyl)-1,2,4-oxadiazol-3-yl)benzamide]
87 | Cc1cc(C(=O)N2CCOCC2CNC(=O)c2ccc(-c3noc(C(F)(F)F)n3)cc2)ccn1 (stereo in doubt) [Example 121, N-(((3R)-4-(2-methylisonicotinoyl)morpholin-3-yl)methyl)-4-(5-(trifluoromethyl)-1,2,4-oxadiazol-3-yl)benzamide]
86 | O=C(NCC1COCCN1C(=O)Nc1ccccc1)c1ccc(-c2noc(C(F)(F)F)n2)cc1 (centres unmarked) [Example 2, N-phenyl-3-(((4-(5-(trifluoromethyl)-1,2,4-oxadiazol-3-yl)benzoyl)amino)methyl)morpholine-4-carboxamide]
93 | Cn1ccnc1C(=O)N1CCOCC1CNC(=O)c1ccc(-c2noc(C(F)(F)F)n2)cc1 (centres unmarked) [Example 16, N-((4-((1-methyl-1H-imidazol-2-yl)carbonyl)morpholin-3-yl)methyl)-4-(5-(trifluoromethyl)-1,2,4-oxadiazol-3-yl)benzamide]
61 | Cn1cnc(C(=O)N2CCOCC2CNC(=O)c2ccc(-c3noc(C(F)(F)F)n3)cc2)c1 (centres unmarked) [Example 17, N-((4-((1-methyl-1H-imidazol-4-yl)carbonyl)morpholin-3-yl)methyl)-4-(5-(trifluoromethyl)-1,2,4-oxadiazol-3-yl)benzamide]
95 | Cc1cc(C(=O)N2CCOC[C@@H]2CNC(=O)c2ccc(-c3noc(C(F)(F)F)n3)cc2)cc(O)n1 [Example 50, N-(((3S)-4-(2-hydroxy-6-methylisonicotinoyl)morpholin-3-yl)methyl)-4-(5-(trifluoromethyl)-1,2,4-oxadiazol-3-yl)benzamide]
95 | O=C(NC[C@H]1COCCN1C(=O)c1cc2ccccc2o1)c1ccc(-c2noc(C(F)(F)F)n2)cc1 [Example 53, N-(((3S)-4-(1-benzofuran-2-ylcarbonyl)morpholin-3-yl)methyl)-4-(5-(trifluoromethyl)-1,2,4-oxadiazol-3-yl)benzamide]
95 | O=C(NC[C@H]1COCCN1C(=O)c1cc2ncccn2n1)c1ccc(-c2noc(C(F)(F)F)n2)cc1 [Example 54, N-(((3S)-4-(pyrazolo[1,5-a]pyrimidin-2-ylcarbonyl)morpholin-3-yl)methyl)-4-(5-(trifluoromethyl)-1,2,4-oxadiazol-3-yl)benzamide]
56 | O=C(NC[C@H]1COCCN1C(=O)C(c1ccccc1)c1ccccc1)c1ccc(-c2noc(C(F)(F)F)n2)cc1 [Example 57, N-(((3S)-4-(diphenylacetyl)morpholin-3-yl)methyl)-4-(5-(trifluoromethyl)-1,2,4-oxadiazol-3-yl)benzamide]
93 | O=C(NC[C@H]1COCCN1C(=O)COc1ccccc1)c1ccc(-c2noc(C(F)(F)F)n2)cc1 [Example 58, N-(((3S)-4-(phenoxyacetyl)morpholin-3-yl)methyl)-4-(5-(trifluoromethyl)-1,2,4-oxadiazol-3-yl)benzamide]
93 | Cc1cc(C(=O)N2CCOC[C@@H]2CNC(=O)c2ccc(-c3noc(C(F)(F)F)n3)cc2)on1 [Example 62, N-(((3S)-4-((3-methyl-1,2-oxazol-5-yl)carbonyl)morpholin-3-yl)methyl)-4-(5-(trifluoromethyl)-1,2,4-oxadiazol-3-yl)benzamide]
75 | Cn1ccc(C(=O)N2CCOC[C@@H]2CNC(=O)c2ccc(-c3noc(C(F)(F)F)n3)cc2)n1 [Example 65, N-(((3S)-4-((1-methyl-1H-pyrazol-3-yl)carbonyl)morpholin-3-yl)methyl)-4-(5-(trifluoromethyl)-1,2,4-oxadiazol-3-yl)benzamide]
88 | Cn1cc(C(=O)N2CCOC[C@@H]2CNC(=O)c2ccc(-c3noc(C(F)(F)F)n3)cc2)cn1 [Example 66, N-(((3S)-4-((1-methyl-1H-pyrazol-4-yl)carbonyl)morpholin-3-yl)methyl)-4-(5-(trifluoromethyl)-1,2,4-oxadiazol-3-yl)benzamide]
89 | O=C(NC[C@H]1COCCN1C(=O)c1cc[nH]n1)c1ccc(-c2noc(C(F)(F)F)n2)cc1 [Example 71, N-(((3S)-4-(1H-pyrazol-3-ylcarbonyl)morpholin-3-yl)methyl)-4-(5-(trifluoromethyl)-1,2,4-oxadiazol-3-yl)benzamide]
89 | Cc1ccc(C(=O)N2CCOC[C@@H]2CNC(=O)c2ccc(-c3noc(C(F)(F)F)n3)cc2)s1 [Example 72, N-(((3S)-4-((5-methyl-2-thienyl)carbonyl)morpholin-3-yl)methyl)-4-(5-(trifluoromethyl)-1,2,4-oxadiazol-3-yl)benzamide]
98 | Cc1csc(C(=O)N2CCOC[C@@H]2CNC(=O)c2ccc(-c3noc(C(F)(F)F)n3)cc2)c1 [Example 73, N-(((3S)-4-((4-methyl-2-thienyl)carbonyl)morpholin-3-yl)methyl)-4-(5-(trifluoromethyl)-1,2,4-oxadiazol-3-yl)benzamide]
92 | O=C(NC[C@H]1COCCN1C(=O)C1CC1)c1ccc(-c2noc(C(F)(F)F)n2)cc1 [Example 75, N-(((3S)-4-(cyclopropylcarbonyl)morpholin-3-yl)methyl)-4-(5-(trifluoromethyl)-1,2,4-oxadiazol-3-yl)benzamide]
90 | O=C(NC[C@H]1COCCN1C(=O)CC1CC1)c1ccc(-c2noc(C(F)(F)F)n2)cc1 [Example 76, N-(((3S)-4-(cyclopropylacetyl)morpholin-3-yl)methyl)-4-(5-(trifluoromethyl)-1,2,4-oxadiazol-3-yl)benzamide]
88 | O=C(NC[C@H]1COCCN1C(=O)C1CCCO1)c1ccc(-c2noc(C(F)(F)F)n2)cc1 (stereo partly drawn) [Example 78, N-(((3S)-4-(tetrahydrofuran-2-ylcarbonyl)morpholin-3-yl)methyl)-4-(5-(trifluoromethyl)-1,2,4-oxadiazol-3-yl)benzamide]
